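Compound exposure: 48 hours, 5 concentrations, 96-well plates. At the GI50, growth is halved.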 Calls of active or inactive are those of the source. Rule as the data show it: active = GI50 up to about 1.1 µM and inactive = higher.
Assays:
Assay in all cases: NCI anticancer screen, dose series, 48 h
786-0 = tested on: 786-0
A498 = tested on: A498
A549 = tested on: A549
ACHN = tested on: ACHN
BT-549 = tested on: BT-549
CAKI-1 = tested on: CAKI-1
CCRF-CEM = tested on: CCRF-CEM
COLO 205 = tested on: COLO 205
DU-145 = tested on: DU-145
EKVX = tested on: EKVX
HCT-116 = tested on: HCT-116
HCT-15 = tested on: HCT-15
HL-60 = tested on: HL-60
HOP-62 = tested on: HOP-62
HOP-92 = tested on: HOP-92
HT-29 = tested on: HT-29
Hs-578T = tested on: Hs-578T
IGROV-1 = tested on: IGROV-1
K562 = tested on: K562
KM12 = tested on: KM12
LOX IMVI = tested on: LOX IMVI
M14 = tested on: M14
MCF7 = tested on: MCF7
MDA-MB-231 = tested on: MDA-MB-231
MDA-MB-435 = tested on: MDA-MB-435
MOLT-4 = tested on: MOLT-4
Malme-3M = tested on: Malme-3M
NCI-H226 = tested on: NCI-H226
NCI-H23 = tested on: NCI-H23
NCI-H460 = tested on: NCI-H460
NCI-H522 = tested on: NCI-H522
NCI/ADR-RES = tested on: NCI/ADR-RES
OVCAR-3 = tested on: OVCAR-3
OVCAR-4 = tested on: OVCAR-4
OVCAR-5 = tested on: OVCAR-5
OVCAR-8 = tested on: OVCAR-8
PC-3 = tested on: PC-3
RPMI-8226 = tested on: RPMI-8226
RXF 393 = tested on: RXF 393
SF-268 = tested on: SF-268
SF-295 = tested on: SF-295
SF-539 = tested on: SF-539
SK-MEL-28 = tested on: SK-MEL-28
SK-MEL-2 = tested on: SK-MEL-2
SK-MEL-5 = tested on: SK-MEL-5
SK-OV-3 = tested on: SK-OV-3
SN12C = tested on: SN12C
SNB-19 = tested on: SNB-19
SNB-75 = tested on: SNB-75
SR = tested on: SR
SW-620 = tested on: SW-620
T47D = tested on: T47D
TK-10 = tested on: TK-10
U-251 = tested on: U-251
UACC-257 = tested on: UACC-257
UACC-62 = tested on: UACC-62
UO-31 = tested on: UO-31

CC(NCCN(C)C)C1CCC2C3CCc4cc(O)ccc4C3CCC12C (configuration not stated)
GI50 (786-0): 1.83 µM (inactive)
GI50 (A498): 4.01 µM (inactive)
GI50 (A549): 3.65 µM (inactive)
GI50 (ACHN): 2 µM (inactive)
GI50 (BT-549): 17.4 µM (inactive)
GI50 (CAKI-1): 2.07 µM (inactive)
GI50 (CCRF-CEM): 0.723 µM (active)
GI50 (COLO 205): 1.84 µM (inactive)
GI50 (DU-145): 6.18 µM (inactive)
GI50 (EKVX): 5.19 µM (inactive)
GI50 (HCT-116): 2.66 µM (inactive)
GI50 (HCT-15): 2.79 µM
GI50 (HL-60): 2.09 µM (inactive)
GI50 (HOP-62): 3.24 µM (inactive)
GI50 (HOP-92): 2.81 µM (inactive)
GI50 (HT-29): 2.89 µM (inactive)
GI50 (Hs-578T): 4.17 µM (inactive)
GI50 (IGROV-1): 4.97 µM (inactive)
GI50 (K562): 1.86 µM (inactive)
GI50 (KM12): 3.21 µM (inactive)
GI50 (LOX IMVI): 2.03 µM (inactive)
GI50 (M14): 1.67 µM (inactive)
GI50 (MCF7): 2.96 µM (inactive)
GI50 (MDA-MB-231): 1.97 µM (inactive)
GI50 (MDA-MB-435): 2.05 µM (inactive)
GI50 (MOLT-4): 1.85 µM (inactive)
GI50 (Malme-3M): 1.68 µM (inactive)
GI50 (NCI-H226): 17.8 µM (inactive)
GI50 (NCI-H23): 4.45 µM (inactive)
GI50 (NCI-H460): 2.2 µM (inactive)
GI50 (NCI-H522): 3.2 µM (inactive)
GI50 (NCI/ADR-RES): 2.86 µM (inactive)
GI50 (OVCAR-3): 1.88 µM (inactive)
GI50 (OVCAR-4): 3.02 µM (inactive)
GI50 (OVCAR-5): 5.42 µM (inactive)
GI50 (OVCAR-8): 2.79 µM (inactive)
GI50 (PC-3): 2.82 µM (inactive)
GI50 (RPMI-8226): 2.34 µM (inactive)
GI50 (RXF 393): 1.85 µM (inactive)
GI50 (SF-268): 5.28 µM (inactive)
GI50 (SF-295): 2.59 µM (inactive)
GI50 (SF-539): 4.76 µM (inactive)
GI50 (SK-MEL-28): 2.19 µM (inactive)
GI50 (SK-MEL-2): 1.91 µM (inactive)
GI50 (SK-MEL-5): 1.71 µM (inactive)
GI50 (SK-OV-3): 3.69 µM (inactive)
GI50 (SN12C): 2 µM (inactive)
GI50 (SNB-19): 3.54 µM (inactive)
GI50 (SNB-75): 3.14 µM (inactive)
GI50 (SR): 1.44 µM (inactive)
GI50 (SW-620): 3.33 µM (inactive)
GI50 (T47D): 2.34 µM (inactive)
GI50 (TK-10): 2.72 µM (inactive)
GI50 (U-251): 2.07 µM (inactive)
GI50 (UACC-257): 2.06 µM (inactive)
GI50 (UACC-62): 1.93 µM (inactive)
GI50 (UO-31): 1.81 µM (inactive)

From ChEMBL document CHEMBL1201862, “PubChem BioAssay data set” (2004)
